# Patent publication US20260000656A1, “ANTIFUNGAL AGENTS WITH ENHANCED ACTIVITY IN ACIDIC PH” (Scynexis, Inc., priority 2017, published 2026)
# Like-named read-outs stand apart in the source and are kept apart here.
# Experiment: Plasma, vaginal secretion and vaginal tissue exposure after oral administration in mice
# Assay type: in vivo
# Settings: for AUC(0-t): po
# Description: Female CD-1 mice (n=3/time point/dose group) were given SCY-078 via oral gavage for either one, two, or eight total doses ranging from 10 to 80 mg/kg, consisting of QD (once per day) and BID (twice per day) dose regimens, with and without loading doses, as follows: • QD (Day 1): 10, 20, 40, 80 mg/kg • BID (Day 1): 10/5, 20/10, 40/20, 80/40 mg/kg • BID repeat dose (Days 1-4): 10/5, 20/10 40/20, 80/40 mg/kg on Day 1; 5, […] mg/kg BID on Days 2 to 4
# Blood, vulvo-vaginal tissue and vaginal secretions were collected pre-dose, and at 1, 2, 4, 6, 8, 12, 18 and 24 hours post-dose, following the final dose administered per group. Samples were then processed, extracted via protein precipitation and analyzed for SCY-078 via LC MS/MS.
compound,measurement,setting,value
CC(C)[C@@H](C)[C@@]1(C)CC[C@]2(C)[C@H]3CC[C@@H]4[C@@]5(COC[C@]4(C)[C@@H](OC[C@](C)(N)C(C)(C)C)[C@H](n4ncnc4-c4ccncc4)C5)C3=CC[C@@]2(C)[C@@H]1C(=O)O [SCY-078],AUC(0-t),"female, CD-1, mouse, plasma, 10 mg/kg, oral gavage, QD 10 mg/kg (Day 1), read-out: AUC0-24 Plasma",8330 ng·h/mL
same,AUC(0-t),"female, CD-1, mouse, plasma, 20 mg/kg, oral gavage, QD 20 mg/kg (Day 1), read-out: AUC0-24 Plasma",19700 ng·h/mL
same,AUC(0-t),"female, CD-1, mouse, plasma, 40 mg/kg, oral gavage, QD 40 mg/kg (Day 1), read-out: AUC0-24 Plasma",42300 ng·h/mL
same,AUC(0-t),"female, CD-1, mouse, plasma, 80 mg/kg, oral gavage, QD 80 mg/kg (Day 1), read-out: AUC0-24 Plasma",75500 ng·h/mL
same,AUC(0-t),"female, CD-1, mouse, plasma, BID regimen, 10/5-80/40 mg/kg, read-out: AUC0-24 in plasma, range over doses",7470 to 101000 ng·h/mL
same,AUC(0-t),"female, CD-1, mouse, plasma, BID repeat dose regimen (Days 1-4), read-out: AUC0-24 in plasma, range over doses",7470 to 101000 ng·h/mL
same,AUC(0-t),"female, CD-1, mouse, plasma, QD regimen, 10-80 mg/kg, read-out: AUC0-24 in plasma, range over doses",8330 to 75500 ng·h/mL
same,AUC(0-t),"female, CD-1, mouse, plasma, oral gavage, BID 10/5 mg/kg (Day 1), read-out: AUC0-24 Plasma",7470 ng·h/mL
same,AUC(0-t),"female, CD-1, mouse, plasma, oral gavage, BID 20/10 mg/kg (Day 1), read-out: AUC0-24 Plasma",16600 ng·h/mL
same,AUC(0-t),"female, CD-1, mouse, plasma, oral gavage, BID 40/20 mg/kg (Day 1), read-out: AUC0-24 Plasma",46500 ng·h/mL
same,AUC(0-t),"female, CD-1, mouse, plasma, oral gavage, BID 80/40 mg/kg (Day 1), read-out: AUC0-24 Plasma",101000 ng·h/mL
same,AUC(0-t),"female, CD-1, mouse, plasma, oral gavage, BID repeat-dose 10/5 mg/kg (Days 1-4), read-out: AUC0-24 Plasma",5120 ng·h/mL
same,AUC(0-t),"female, CD-1, mouse, plasma, oral gavage, BID repeat-dose 20/10 mg/kg (Days 1-4), read-out: AUC0-24 Plasma",14600 ng·h/mL
same,AUC(0-t),"female, CD-1, mouse, plasma, oral gavage, BID repeat-dose 40/20 mg/kg (Days 1-4), read-out: AUC0-24 Plasma",53000 ng·h/mL
same,AUC(0-t),"female, CD-1, mouse, plasma, oral gavage, BID repeat-dose 80/40 mg/kg (Days 1-4), read-out: AUC0-24 Plasma",143000 ng·h/mL
same,AUC(0-t),"female, CD-1, mouse, vaginal secretion, 10 mg/kg, oral gavage, QD 10 mg/kg (Day 1), read-out: AUC0-24 Vaginal Secretion",1320 ng·h/mL
same,AUC(0-t),"female, CD-1, mouse, vaginal secretion, 20 mg/kg, oral gavage, QD 20 mg/kg (Day 1), read-out: AUC0-24 Vaginal Secretion",1870 ng·h/mL
same,AUC(0-t),"female, CD-1, mouse, vaginal secretion, 40 mg/kg, oral gavage, QD 40 mg/kg (Day 1), read-out: AUC0-24 Vaginal Secretion",4410 ng·h/mL
same,AUC(0-t),"female, CD-1, mouse, vaginal secretion, 80 mg/kg, oral gavage, QD 80 mg/kg (Day 1), read-out: AUC0-24 Vaginal Secretion",12300 ng·h/mL
same,AUC(0-t),"female, CD-1, mouse, vaginal secretion, oral gavage, BID 10/5 mg/kg (Day 1), read-out: AUC0-24 Vaginal Secretion",1550 ng·h/mL
same,AUC(0-t),"female, CD-1, mouse, vaginal secretion, oral gavage, BID 20/10 mg/kg (Day 1), read-out: AUC0-24 Vaginal Secretion",4210 ng·h/mL
same,AUC(0-t),"female, CD-1, mouse, vaginal secretion, oral gavage, BID 40/20 mg/kg (Day 1), read-out: AUC0-24 Vaginal Secretion",10600 ng·h/mL
same,AUC(0-t),"female, CD-1, mouse, vaginal secretion, oral gavage, BID 80/40 mg/kg (Day 1), read-out: AUC0-24 Vaginal Secretion",17800 ng·h/mL
same,AUC(0-t),"female, CD-1, mouse, vaginal secretion, oral gavage, BID repeat-dose 10/5 mg/kg (Days 1-4), read-out: AUC0-24 Vaginal Secretion",4320 ng·h/mL
same,AUC(0-t),"female, CD-1, mouse, vaginal secretion, oral gavage, BID repeat-dose 20/10 mg/kg (Days 1-4), read-out: AUC0-24 Vaginal Secretion",8630 ng·h/mL
same,AUC(0-t),"female, CD-1, mouse, vaginal secretion, oral gavage, BID repeat-dose 40/20 mg/kg (Days 1-4), read-out: AUC0-24 Vaginal Secretion",38800 ng·h/mL
same,AUC(0-t),"female, CD-1, mouse, vaginal secretion, oral gavage, BID repeat-dose 80/40 mg/kg (Days 1-4), read-out: AUC0-24 Vaginal Secretion",120000 ng·h/mL
same,AUC(0-t),"female, CD-1, mouse, vaginal secretions, BID regimen, 10/5-80/40 mg/kg, read-out: AUC0-24 in vaginal secretions, range over doses",1550 to 17800 ng·h/mL
same,AUC(0-t),"female, CD-1, mouse, vaginal secretions, BID repeat dose regimen (Days 1-4), read-out: AUC0-24 in vaginal secretions, range over doses",4320 to 120000 ng·h/mL
same,AUC(0-t),"female, CD-1, mouse, vaginal secretions, QD regimen, 10-80 mg/kg, read-out: AUC0-24 in vaginal secretions, range over doses",1320 to 12300 ng·h/mL
same,Kp,"female, CD-1, mouse, vaginal tissue, oral, repeat-dosing, read-out: accumulation in vaginal tissue relative to plasma",> 10
same,AUC0-24 Vaginal Tissue,"oral gavage, BID 10/5 mg/kg (Day 1)",24.6 µg·h/g
same,AUC0-24 Vaginal Tissue,"oral gavage, BID 20/10 mg/kg (Day 1)",72.9 µg·h/g
same,AUC0-24 Vaginal Tissue,"oral gavage, BID 40/20 mg/kg (Day 1)",204 µg·h/g
same,AUC0-24 Vaginal Tissue,"oral gavage, BID 80/40 mg/kg (Day 1)",337 µg·h/g
same,AUC0-24 Vaginal Tissue,"oral gavage, BID repeat-dose 10/5 mg/kg (Days 1-4)",24.4 µg·h/g
same,AUC0-24 Vaginal Tissue,"oral gavage, BID repeat-dose 20/10 mg/kg (Days 1-4)",71.6 µg·h/g
same,AUC0-24 Vaginal Tissue,"oral gavage, BID repeat-dose 40/20 mg/kg (Days 1-4)",275 µg·h/g
same,AUC0-24 Vaginal Tissue,"oral gavage, BID repeat-dose 80/40 mg/kg (Days 1-4)",1798 µg·h/g
same,AUC0-24 Vaginal Tissue,"oral gavage, QD 10 mg/kg (Day 1)",26.7 µg·h/g
same,AUC0-24 Vaginal Tissue,"oral gavage, QD 20 mg/kg (Day 1)",53.6 µg·h/g
same,AUC0-24 Vaginal Tissue,"oral gavage, QD 40 mg/kg (Day 1)",187 µg·h/g
same,AUC0-24 Vaginal Tissue,"oral gavage, QD 80 mg/kg (Day 1)",171 µg·h/g
